Measurements: patent US11566229B2, “Expansion and maintenance of adult primary human hepatocytes in culture” (Wisconsin Alumni Research Foundation, priority 2018, dated 2023)

Tests used:
[1] = tested on: mouse adult proliferating hepatocytes; details: U0126 treated mouse adult proliferating hepatocytes
Source text: Total RNA was qualified with Life Technologies Qubit fluorometer (Q32857) and Agilent Bioanalyzer (G2940CA). Total RNA was used to prepare indexed cDNA libraries with the Ligation Mediated Sequencing (LM-Seq) protocol (Hou, Z et al. 2015). Final indexed cDNA libraries were pooled with forty-four uniquely indexed LM-Seq cDNA libraries per lane and sequenced on an Illumina HiSeq 3000.
We derived SHPCs from adult mouse liver and treated them with the MAPK inhibitor U0126.

[2] = tested on: ESC-hepatocyte derived SHPCs; details: SHPC medium, co-cultured with MEFs and U0126; QPCR, FIG. 6
Source text: We treated the ESC-hepatocyte derived SHPCs in SHPC medium and co-cultured with MEFs and U0126. We FAC sorted the albumin reporter expressing hepatocytes and performed QPCR.

With `N#CC(=C(/N)Sc1ccccc1N)/C(C#N)=C(\N)Sc1ccccc1N` [U0126] the “CYP1A2 gene expression (RNA-Seq)” value ([1]; vehicle 1) was 78, the “RARA gene expression (RNA-Seq)” value ([1]; vehicle 1) was 5 and the “AHR gene expression (RNA-Seq)” value ([1]; vehicle 4) was 11. For the same compound, the “UGT1A1 gene expression (RNA-Seq)” value ([1]; vehicle 6) was 54, the “CYP3A16 (human fetal CYP3A4) gene expression (RNA-Seq)” value ([1]; vehicle 15) was 2 and the “RXRA gene expression (RNA-Seq)” value ([1]; vehicle 28) was 40. For the same compound, the “UGT1A6A gene expression (RNA-Seq)” value ([1]; vehicle 28) was 189, the “CYP1A1 gene expression (RNA-Seq)” value ([1]; vehicle 36) was 1447 and the “APOH gene expression (RNA-Seq)” value ([1]; vehicle 128) was 245. For the same compound, the “HNF4A gene expression (RNA-Seq)” value ([1]; vehicle 254) was 340, the “APOB gene expression (RNA-Seq)” value ([1]; vehicle 332) was 567 and the “CYP3A11 (human adult CYP3A4) gene expression (RNA-Seq)” value ([1]; vehicle 496) was 563. The “Albumin gene expression (RNA-Seq)” value ([1]; vehicle 6523) was 11379, the “increase in CYP3A expression” value [2] was 3 fold and the “increase in albumin expression” value [2] was 2 fold.
